Laboratory results from US5475130A, “Anilide derivative” (Taisho Pharmaceutical Co., Ltd., priority 1990, dated 1995).

These molecules were tested against T1, ACAT (acyl-coenzyme A cholesterol acyltransferase) (Oryctolagus cuniculus, UniProt G1SFD9) (assay: ACAT inhibition activity (rabbit small intestinal microsome fraction, [1-^14 C]oleyl coenzyme A)). Conditions: not given.
T1 construct: A rabbit small intestinal microsome fraction was prepared in the usual way; from tissue; host or cells: rabbit small intestine, microsome fraction
T1 sequence (G1SFD9 1-524): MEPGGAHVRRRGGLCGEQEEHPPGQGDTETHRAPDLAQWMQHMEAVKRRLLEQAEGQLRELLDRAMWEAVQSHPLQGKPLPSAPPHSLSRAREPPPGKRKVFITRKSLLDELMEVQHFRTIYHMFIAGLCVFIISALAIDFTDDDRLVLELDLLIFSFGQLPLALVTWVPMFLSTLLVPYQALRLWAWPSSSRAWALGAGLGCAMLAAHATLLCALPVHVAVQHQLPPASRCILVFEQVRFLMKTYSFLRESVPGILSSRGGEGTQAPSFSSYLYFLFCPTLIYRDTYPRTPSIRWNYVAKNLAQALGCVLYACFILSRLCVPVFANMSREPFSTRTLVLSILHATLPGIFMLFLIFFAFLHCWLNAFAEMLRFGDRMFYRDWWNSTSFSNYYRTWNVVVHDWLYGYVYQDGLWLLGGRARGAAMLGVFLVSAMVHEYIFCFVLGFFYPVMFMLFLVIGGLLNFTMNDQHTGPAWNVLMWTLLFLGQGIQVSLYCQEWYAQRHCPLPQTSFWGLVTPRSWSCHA
Assay type: biochemical
Method: (ACAT inhibition activity)
A rabbit small intestinal microsome fraction was prepared in the usual way, and the thus prepared microsome fraction was suspended in 0.04N potassiumphosphate buffer (pH 7.4) containing 0.1N sucrose, 0.03N ethylenediaminetetraacetic acid (EDTA) and 0.05N potassium chloride. Each of the drugs to be tested was dissolved in dimethyl sulfoxide.
The rabbit small intestinal microsome fraction suspension prepared above (250 μg as protein) and [1-^14 C]oleyl coenzyme A were added to 0.05N phosphate buffer (pH 7.4) containing 1% bovine serum albumin, followed by the addition of a drug to be tested with varied concentration,and the total volume was adjusted to 500 μl. The thus prepared mixture was incubated at 37° C. for 6 minutes, and the reaction was terminated by adding a mixture of chloroform and methanol (mixing ratio=2:1). After stirring, the resulting chloroform layer was collected and dried by concentration. […] A gel portion corresponding to cholesterol oleate was cut out and its radioactivity was measured using a liquid scintillation counter (LSC-3000, manufactured by Aroka Co., Ltd.). Samples obtained without using the drugs to be tested were also treated and measured in the same manner.
ACAT activity inhibition ratio (%)=(A-B)/B×100
A: ACAT activity when a drug to be tested is administered.
B: ACAT activity when a drug to be tested is not admistered.
Work on CCCCCCCCCCCCCCSCC(=O)Nc1c(C(C)C)cccc1C(C)C [Compound 1, N-(2,6-diisopropylphenyl)-2-(tetradecylthio)acetamide] yielded an IC50 of 1 to 10 nM.

Same assay, conditions: rabbit small intestinal microsome fraction (250 μg as protein), 37° C., 6 minutes, pH 7.4, 1% bovine serum albumin; read-out: Activity (strength of the activity, IC50 value)
With CCCCCCCCCCCCCC[S+]([O-])CC(=O)Nc1c(C(C)C)cccc1C(C)C (stereo not shown) [Compound 13] the IC50 was 10 to 100 nM.
With CCCCCCCCCCCCCCS(=O)(=O)CC(=O)Nc1c(C(C)C)cccc1C(C)C [Compound 14, N-(2,6-diisopropylphenyl)-2-(tetradecylsulfonyl)acetamide] the IC50 was 10 to 100 nM.
CCCCCCCCCCCCSCC(=O)Nc1c(C(C)C)cccc1C(C)C [Compound 4, N-(2,6-diisopropylphenyl)-2-(dodecylthio)acetamide] showed an IC50 of 10 to 100 nM.
Work on CCCCCCCCCCCCS(=O)(=O)CC(=O)Nc1c(C(C)C)cccc1C(C)C [Compound 17, N-(2,6-diisopropylphenyl)-2-(dodecylsulfonyl)acetamide] yielded an IC50 of 10 to 100 nM.
Work on CC(C)c1cccc(C(C)C)c1NC(=O)CSCc1ccc(C(C)(C)C)cc1 [Compound 8, N-(2,6-diisopropylphenyl)-2-(4-t-butylbenzylthio)acetamide] yielded an IC50 of 10 to 100 nM.
In the case of CCCCCCCCCCCCCCSC(C)(C)C(=O)Nc1c(C(C)C)cccc1C(C)C [Compound 9, N-(2,6-diisopropylphenyl)-2-methyl-2-(tetradecylthio)propanamide], the IC50 is reported as 10 to 100 nM.
CCCCCCCCCCCCCCSCCCC(=O)Nc1c(C(C)C)cccc1C(C)C [Compound 10, N-(2,6-diisopropylphenyl)-4-(tetradecylthio)butanamide] gave an IC50 of 1 to 10 nM.
CCCCCCCCCCCCCCSCCC(=O)Nc1c(C(C)C)cccc1C(C)C [Compound 12, N-(2,6-diisopropylphenyl)-3-(tetradecylthio)propanamide] showed an IC50 of 1 to 10 nM.
Molecule CCCCCCCCCCCCCCSCC(=O)Nc1c(C)cccc1C(C)(C)C [Compound 24, N-(2-methyl-6-t-butylphenyl)-2-(tetradecylthio)acetamide] has an IC50 of 1 to 10 nM.
In the case of CCCCCCCCCCCCCCCCCCSCC(=O)Nc1c(C(C)C)cccc1C(C)C [Compound 6, N-(2,6-diisopropylphenyl)-2-(octadecylthio)acetamide], the IC50 is reported as 1 to 10 nM.
With CCCCCCCCCCCCCCCCSCC(=O)Nc1c(C(C)C)cccc1C(C)C [Compound 5, N-(2,6-diisopropylphenyl)-2-(hexadecylthio)acetamide] the IC50 was 10 to 100 nM.
CCCCCCCCCCCCCCCCS(=O)(=O)CC(=O)Nc1c(C(C)C)cccc1C(C)C [Compound 18, N-(2,6-diisopropylphenyl)-2-(hexadecylsulfonyl)acetamide] was tested, and the IC50 was 10 to 100 nM.
